According to patent publication US4259329A, “17-Cyclobutylmethyl-3-hydroxy-β-methyl-6-methylene morphinane, and methods of treating pain with them” (priority 1980, dated 1981):
Entries after “also recorded” stand apart in the source; their conditions may differ. Structures can show the parent of a compound that is named as a salt. Where two headings read alike, the source gives them in different places.

Experiments:
[1] = system: Physically Morphine Dependent Rats; assay type: in vivo
Description: (§1) Substitution Studies in Physically Morphine Dependent Rats
(§2) Rats were made physically dependent by continuous infusion of morphine through an indwelling intraperitoneal cannula as has been described (D. G. Teiger, J. Pharmacol. Exp. Ther., 190 408, 1974). Then one day substitution of either TR-5257 or TR-5379 was studied. Both drugs were infused at the rate of 125 mg/kg/day.

[2] = system: Physically Morphine Dependent Rats; assay: Incidence of side effects during substitution in morphine dependent rats
Description: as §1, §2
*Post termination of morphine infusion and during test drug infusion.

[3] = system: mice (acetic acid writhing); assay: Acetic Acid Mouse Writhing Test (analgesic effects); assay type: in vivo, male CD-1 mice; details: sc, 0.25 h, subcutaneous, acetic acid i.p. 15 min post drug, read-out: ED50 (dose required to reduce the number of writhes by 50%)
Description: Acetic Acid Mouse Writhing Test
The analgesic effects of the test compounds were determined in mice by use of the acetic acid writhing test described by B. A. Whittle, Brit. J. Pharmacol., 22: 246 (1964). In this test at least three groups of 5 male CD-1 mice each were given subcutaneous doses of the test drug dissolved in distilled water. In all cases 0.4 milliliters of a 0.5% V/V acetic acid in distilled water solution was administered intraperitoneally 15 minutes post drug. The number of writhes in a 20 minute interval beginning 5 minutes after the acetic acid injection were determined and compared with the number of writhes in a control group which had received only acetic acid.
Percent inhibition of writhing was calculated as: [formula]
The ED50 dose, i.e., the dose required to reduce the number of writhes by 50%, was determined graphically from a plot of % inhibition as a probit verus log dose. Confidence limits of 95% were calculated on the basis of those results falling in the range 16-84% inhibition. See Litchfield, J. T. and Wilcoxon, F., J. Pharmacol. Exp. Ther., 96, 99-113 (1949).

drug dependent monkeys = assay: Substitution for morphine in drug dependent monkeys; assay type: in vivo
[4] = system: rats (effect of morphine, tail flick); assay: Evaluation of Narcotic Antagonist Activity (modified rat tail flick test, antagonism of morphine); assay type: in vivo, male albino Wistar rats
Description: Evaluation of Narcotic Antagonist Activity
The narcotic antagonist effect of the test compound was determined by a modification of the rat tail flick procedure of Harris and Pierson (J. Pharmacol. Exp. Ther., 143:141 [1964]).
Male albino Wistar rats (100-120 g) were used for this study. A rat's tail is so placed so as to cover a photocell. Heat is applied by a lamp in a reflector with a timer being connected to the lamp and photocell so that the timer goes on when the light is turned on and is turned off when the photocell is uncovered. A rheostat, incorporated into a heating lamp is used to adjust the intensity of the light falling on the tail of the rat such that the rat's control reaction time is from two to four seconds. Animals with a control reaction time outside this range are rejected. The rheostat adjustment is made only if a significant proportion (1 out of every 10 rats) of the reaction times are outside the range of two to four seconds. Groups of 5 rats were used, and two control times were determined at 60 and 30 minutes prior to subcutaneous injection of the drug.
At least thirty minutes after the last control run the test drug was given […]. This was followed ten minutes later by an ED80 dose of morphine subcutaneously. The animals were retested at 20 minutes after the morphine injection. Control animals were given vehicle and morphine only. The data were calculated as follows: [formula]
The data were plotted on log-probit paper and AD50 values, i.e., the dose required to inhibit the effect of morphine by 50% within 95% confidence limits, were determined by the method of Litchfield and Wilcoxon.

[5] = +6 hr post termination of morphine infusion, during test drug infusion

## CN1CC[C@]23c4c5ccc(O)c4O[C@H]2[C@@H](O)C=C[C@H]3[C@H]1C5 [Morphine]
[1]; +1 day (test drug infusion stopped here), 125 mg/kg/day for 1 day, morphine: infusion schedule 50-200 mg/kg/day
  Mean % Change in Weight From Termination of Morphine Infusion: -16.8%
[1]; +2 days, 125 mg/kg/day for 1 day, morphine: infusion schedule 50-200 mg/kg/day
  Mean % Change in Weight From Termination of Morphine Infusion: -12.7%
[1]; +3 days, 125 mg/kg/day for 1 day, morphine: infusion schedule 50-200 mg/kg/day
  Mean % Change in Weight From Termination of Morphine Infusion: -7.8%
[1]; +4 days, 125 mg/kg/day for 1 day, morphine: infusion schedule 50-200 mg/kg/day
  Mean % Change in Weight From Termination of Morphine Infusion: -1.6%

## C[C@H]1CC(=O)C[C@]23CCN(CC4CCC4)[C@H](Cc4ccc(O)cc42)[C@H]13.O=C(O)C(O)C(O)C(=O)O [TR-5257, 17-Cyclobutylmethyl-3-hydroxy-8β-methylmorphinan-6-one Tartrate]
[1]; rat, in vivo
  loss in weight during substitution (in words): appeared to prevent the marked loss in weight observed in the morphine controls
  substitution for morphine: ambiguous, with indication of partial substitution
[1]; rat, in vivo, 125 mg/kg/day
  Mean % Change in Weight From Termination of Morphine Infusion: -2.64%
[2]; [5]
  Incidence of Aggressive: 1/8
  Incidence of Diarrhea: 4/8
  Incidence of Pilo erection: 8/8
  Incidence of Wet dog shakes: 6/8
[2]; +24 hr
  Incidence of Pilo erection: 4/8
  Incidence of Tremors: 1/4
[2]; +30 hr
  Incidence of Pilo erection: 4/8
[2]; during period of drug substitution, 125 mg/kg/day
  withdrawal symptoms: marked withdrawal symptoms
[3]
  ED50: 0.14 mg/kg

## C=C1C[C@H](C)[C@H]2[C@H]3Cc4ccc(OC)cc4[C@@]2(CCN3CC2CCC2)C1.Cl [TR-5377, 17-cyclobutylmethyl-3-methoxy-8β-methyl-6-methylene-morphinane Hydrochloride]
[3]
  ED50: 6.42 mg/kg

## C=C1C[C@H](C)[C@H]2[C@H]3Cc4ccc(O)cc4[C@@]2(CCN3CC2CCC2)C1 [TR-5379, 17-Cyclobutylmethyl-3-hydroxy-8β-methyl-6-methylene morphinane]
Drug dependent monkeys
  substitution for morphine: did not substitute for morphine
[4]; compared with corresponding 6-keto analog
  morphine antagonist action: more potent morphine antagonist action than its corresponding 6-keto analog
[4]; compared with corresponding 6-keto analog, test not named
  dose-response curve: steeper dose-response curve
[1]; rat, in vivo
  substitution for morphine: did not substitute for morphine; also recorded: does not substitute for morphine
[1]; rat, in vivo, 125 mg/kg/day
  Mean % Change in Weight From Termination of Morphine Infusion: -11.3%
[2]; [5]
  Incidence of Aggressive: 1/6
  Incidence of Diarrhea: 4/6
  Incidence of Pilo erection: 6/6
[2]; +24 hr
  Incidence of Diarrhea: 2.6
  Incidence of Pilo erection: 6/6
[2]; +30 hr
  Incidence of Diarrhea: 2/6
  Incidence of Pilo erection: 4/6
[3]
  ED50: 0.18 mg/kg

## C=C1C[C@H](C)[C@H]2[C@H]3Cc4ccc(OC)cc4[C@@]2(CCN3CC2CC2)C1 [TR-5412, 17-cyclopropylmethyl-3-methoxy-8β-methyl-6-methylene-morphinane]
[3]
  ED50: 3.2 mg/kg

## C=C1C[C@H](C)[C@H]2[C@H]3Cc4ccc(O)cc4[C@@]2(CCN3CC2CC2)C1 [TR-5413, 17-Cyclopropylmethyl-3-hydroxy-8β-methyl-6-methylene-morphinane]
[3]
  ED50: 1.7 mg/kg

## C=C1CC[C@H]2[C@H]3Cc4ccc(O)cc4[C@@]2(CCN3CC2CCC2)C1 [TR-5566, 17-Cyclobutylmethyl-3-hydroxy-6-methylene-morphinane Hydrochloride Acetone Solvate]
[3]
  ED50: 0.09 mg/kg

## C=C1CC[C@H]2[C@H]3Cc4ccc(O)cc4[C@@]2(CCN3CC2CC2)C1 [TR-5609, 17-Cyclopropylmethyl-3-hydroxy-6-methylene-morphinan]
[3]
  ED50: 0.38 mg/kg

## C=C1CC[C@H]2[C@H]3Cc4ccc(OC)cc4[C@@]2(CCN3CC2CCC2)C1 [TR-5610, 17-Cyclobutylmethyl-3-methoxy-6-methylene-morphinane Tartrate Ethanol Solvate]
[4]; rat, test drug intraperitoneal, ED80 dose of morphine s.c. 10 min later
  AD50 (dose required to inhibit the effect of morphine by 50%): IA @ 10
[3]
  ED50: 1.6 mg/kg
